Test [1] addresses T1, M3 mAChR WT (Homo sapiens, UniProt P20309).
T1 construct: expressed in transfected cells
Put plainly: [3H]-NMS radioligand dissociation binding, M3 mAChR WT. The following applies: M3 mAChR. The method, then:
(§1) Flp-In Chinese hamster ovary (CHO) (Thermo Fisher Scientific) cells stably expressing mAChR WTs or mutant constructs were cultured in Dulbecco’s modified Eagle’s medium (DMEM, Invitrogen) containing 5% foetal bovine serum (FBS; ThermoTrace) and […] of hygromycin (Roche) in a humidified incubator (37 °C, 5% CO2). Upon reaching confluence, media was removed, cells were washed with phosphate buffered saline (PBS) and harvested from tissue culture flasks using versene (PBS with 0.2 g EDTA). Cells were then pelleted through centrifugation at 350 × g for three minutes followed by resuspension in DMEM + 5% FBS. Cells were then either plated for an assay or reseeded into a tissue culture flask.

In test [2] the target is T2, M5 mAChR WT (Homo sapiens, UniProt P08912).
T2 construct: expressed in transfected cells
T2 sequence (P08912 1-532): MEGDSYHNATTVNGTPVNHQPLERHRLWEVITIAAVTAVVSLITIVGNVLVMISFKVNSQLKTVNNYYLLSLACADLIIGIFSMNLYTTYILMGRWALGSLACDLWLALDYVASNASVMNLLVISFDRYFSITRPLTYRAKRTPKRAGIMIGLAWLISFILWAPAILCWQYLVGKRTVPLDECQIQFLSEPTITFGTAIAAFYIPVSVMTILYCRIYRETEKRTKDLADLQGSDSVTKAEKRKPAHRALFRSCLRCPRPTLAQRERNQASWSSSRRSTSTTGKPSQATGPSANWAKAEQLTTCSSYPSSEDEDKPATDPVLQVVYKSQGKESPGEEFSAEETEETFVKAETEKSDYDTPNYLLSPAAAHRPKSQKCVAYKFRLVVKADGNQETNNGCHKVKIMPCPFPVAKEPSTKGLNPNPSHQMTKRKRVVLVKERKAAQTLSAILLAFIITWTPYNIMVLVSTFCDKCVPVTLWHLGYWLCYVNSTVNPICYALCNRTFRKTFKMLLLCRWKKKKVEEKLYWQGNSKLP
The test is described as follows: [3H]-NMS radioligand dissociation binding, M5 mAChR WT. The protocol: as §1

The target of test [3] is T3, M4 mAChR F186A (Homo sapiens, UniProt P08173, F186A).
T3 construct: expressed in transfected cells
T3 sequence (P08173 1-479 F186A): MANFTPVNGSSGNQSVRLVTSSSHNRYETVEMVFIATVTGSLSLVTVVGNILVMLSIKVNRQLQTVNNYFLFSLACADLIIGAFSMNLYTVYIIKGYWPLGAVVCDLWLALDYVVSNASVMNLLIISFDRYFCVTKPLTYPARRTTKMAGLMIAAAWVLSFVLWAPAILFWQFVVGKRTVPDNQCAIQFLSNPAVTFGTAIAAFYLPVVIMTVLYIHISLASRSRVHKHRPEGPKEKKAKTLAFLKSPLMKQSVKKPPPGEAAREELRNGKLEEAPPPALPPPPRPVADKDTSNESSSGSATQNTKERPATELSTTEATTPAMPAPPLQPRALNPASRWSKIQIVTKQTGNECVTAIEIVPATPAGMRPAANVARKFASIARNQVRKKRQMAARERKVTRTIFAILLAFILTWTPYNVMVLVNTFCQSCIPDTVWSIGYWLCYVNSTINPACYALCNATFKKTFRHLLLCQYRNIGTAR
The test is described as follows: [3H]-NMS radioligand dissociation binding, M4 mAChR F186A. Particulars: for [3H]-NMS binding remaining (0 min = 100), MEAN: M4 F186A mAChR. The method, then:
as §1

Test [4] addresses T4, M4 mAChR WT (Homo sapiens, UniProt P08173).
T4 construct: expressed in transfected cells
T4 sequence (P08173 1-479): T3 sequence (P08173 1-479 F186A) with A186F
Put plainly: [3H]-NMS radioligand dissociation binding, M4 mAChR WT. Particulars: for [3H]-NMS binding remaining (0 min = 100), MEAN: M4 mAChR. The method, then:
as §1

Setting [5] is: 10uM Atr + 30uM LY2033, 120 min.
Setting [6] is: 10uM Atr + 30uM LY2033, 210 min.
The mark [7] stands for this setting: 10uM Atr + 30uM LY2033, 180 min.
Where [8] appears, read: 10uM Atr + 30uM LY2033, 300 min.
Setting [9] is: 10uM Atr + 10 μM Iperoxo, 10 min.
Setting [10] is: 10uM Atr + 10 μM Iperoxo, 15 min.
[11] abbreviates: 10uM Atr + 10 μM Iperoxo, 30 min.
Where [12] appears, read: 10uM Atr + 10 μM Iperoxo, 90 min.
[13] abbreviates: 10uM Atr + 10 μM Iperoxo, 120 min.
The mark [14] stands for this setting: 10uM Atr + 10 μM Iperoxo, 210 min.
Where [15] appears, read: 10uM Atr + 10 μM Iperoxo, 180 min.
Setting [16] is: 10uM Atr + 10 μM Iperoxo, 300 min.

The structures appear in SMILES notation. Residue numbers refer to the chain shown, from its start.

The record followed here is publication PMC10482975 (Nature Communications, 2023).

T1 sequence (P20309 whole entry): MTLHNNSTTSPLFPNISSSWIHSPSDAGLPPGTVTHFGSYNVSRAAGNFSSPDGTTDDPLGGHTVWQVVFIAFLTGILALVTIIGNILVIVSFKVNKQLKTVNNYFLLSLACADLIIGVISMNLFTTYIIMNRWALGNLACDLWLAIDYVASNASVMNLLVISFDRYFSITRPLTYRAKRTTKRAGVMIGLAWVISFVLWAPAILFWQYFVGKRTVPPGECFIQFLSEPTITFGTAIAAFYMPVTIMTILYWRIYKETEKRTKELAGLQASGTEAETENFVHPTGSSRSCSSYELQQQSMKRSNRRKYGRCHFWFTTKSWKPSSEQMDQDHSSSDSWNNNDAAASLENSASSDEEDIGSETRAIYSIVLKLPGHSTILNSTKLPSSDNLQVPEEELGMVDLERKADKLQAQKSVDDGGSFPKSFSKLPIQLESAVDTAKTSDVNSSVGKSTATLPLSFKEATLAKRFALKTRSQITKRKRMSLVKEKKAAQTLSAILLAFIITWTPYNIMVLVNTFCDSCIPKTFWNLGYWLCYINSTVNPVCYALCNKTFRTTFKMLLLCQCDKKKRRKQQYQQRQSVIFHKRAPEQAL

For the compound `COc1nc2sc(C(=O)NC3CC3)c(N)c2c(C)c1Cl` [LY2033298], the “[3H]-NMS binding remaining (0 min = 100), MEAN” value (from here on “[3H]-NMS binding remaining”) in test [1] (10uM Atr + 30uM LY2033, 10 min) was 96.1336; in test [1] (10uM Atr + 30uM LY2033, 15 min), 101.345; in test [1] (10uM Atr + 30uM LY2033, 30 min) it was 103.79; in test [1] (10uM Atr + 30uM LY2033, 90 min), 88.3999; in test [1] (setting [5]) it was 77.6461; in test [1] (setting [6]) it was 65.167. Further, the “[3H]-NMS binding remaining” value in test [2] (10uM Atr + 30uM LY2033, 10 min) was determined as 102.761; in test [2] (10uM Atr + 30uM LY2033, 15 min), 100.045; in test [2] (10uM Atr + 30uM LY2033, 30 min), 98.0655; in test [2] (10uM Atr + 30uM LY2033, 90 min) it was 75.4577; in test [2] (setting [5]), 66.5441; in test [2] (setting [6]), 53.7527. For the same compound, the “[3H]-NMS binding remaining” value in test [3] (10uM Atr + 30uM LY2033, 30 min) amounted to 80.3007; in test [3] (10uM Atr + 30uM LY2033, 90 min), 48.89; in test [3] (setting [7]), 55.5733; in test [3] (setting [8]), 28.0247; in test [4] (10uM Atr + 10uM LY2033, 30 min), 112.685; in test [4] (10uM Atr + 10uM LY2033, 60 min) it was 100.725. Further, the “[3H]-NMS binding remaining” value came to 100.81 in test [4] (10uM Atr + 10uM LY2033, 90 min); 78.3598 in test [4] (10uM Atr + 10uM LY2033, 180 min); 57.1596 in test [4] (10uM Atr + 10uM LY2033, 300 min); 97.9955 in test [4] (10uM Atr + 30uM LY2033, 30 min); 92.0634 in test [4] (10uM Atr + 30uM LY2033, 90 min); 80.808 in test [4] (setting [7]). Moreover, in test [4] (setting [8]), the “[3H]-NMS binding remaining” value worked out at 69.858. The “effect on [3H]-NMS dissociation (in words)” value in test [3] (M4 mAChR F186A mutant) is recorded as “a similar effect was observed”.

`C[N+](C)(C)CC#CCOC1=NOCC1` [iperoxo]: the “[3H]-NMS binding remaining” value in test [1] (setting [9]) came to 100.4; in test [1] (setting [10]) it was 96.8554; in test [1] (setting [11]), 79.7803; in test [1] (setting [12]), 45.8424; in test [1] (setting [13]) it was 38.0708; in test [1] (setting [14]) it was 19.3493. In addition, the “[3H]-NMS binding remaining” value came to 98.7473 in test [2] (setting [9]); 104.707 in test [2] (setting [10]); 92.7543 in test [2] (setting [11]); 56.424 in test [2] (setting [12]); 46.6348 in test [2] (setting [13]); 27.5139 in test [2] (setting [14]). Moreover, the “[3H]-NMS binding remaining” value in test [3] (setting [11]) was found to be 78.4972; in test [3] (setting [12]) it was 56.5181; in test [3] (setting [15]), 43.1916; in test [3] (setting [16]) it was 30.9448; in test [4] (setting [11]), 88.7252; in test [4] (setting [12]) it was 52.6732. Moreover, the figures for the “[3H]-NMS binding remaining” value in test [4] (setting [15]) and in test [4] (setting [16]) were 31.8571 and 17.3639, respectively. For the same compound, the “effect on [3H]-NMS dissociation (in words)” value in test [4] (wild-type M4 mAChR, increasing concentrations of xanomeline, saturating concentration of iperoxo) is “had no effect”.
